According to the supplement of paper PMC11451515:

Test system: SEM cells
Assay: cell viability relative to DMSO control; higher = less cytotoxic
Settings: 48 h
In short: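 Viability is expressed as a percentage of DMSO wells within each plate, and cell-free wells serve as background. Seeding densities in the 1536-well plates (5 μl) were 500 cells/well for NOMO1 or SEM leukemia cells and 1000 cells/well for P12-Ichikawa. Each line was adapted for at least four passages in each medium. Library compounds in DMSO were pin-dosed at 47 μM to 0.79 nM (11 points, threefold), and CellTiter-Glo One luminescence was read after 48 h at 37°C.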

[1] = HPLM + 10% dialyzed FBS, 0.000781 µM
[2] = HPLM + 10% dialyzed FBS, 0.00234 µM
[3] = HPLM + 10% dialyzed FBS, 0.00702 µM
[4] = HPLM + 10% dialyzed FBS, 0.0211 µM
[5] = HPLM + 10% dialyzed FBS, 0.0632 µM
[6] = HPLM + 10% dialyzed FBS, 0.19 µM
[7] = HPLM + 10% dialyzed FBS, 0.569 µM
[8] = HPLM + 10% dialyzed FBS, 1.71 µM
[9] = HPLM + 10% dialyzed FBS, 5.12 µM
[10] = HPLM + 10% dialyzed FBS, 15.4 µM
[11] = HPLM + 10% dialyzed FBS, 46.1 µM
[12] = RPMI 5 mM glucose + 10% FBS, 0.000781 µM
[13] = RPMI 5 mM glucose + 10% FBS, 0.00234 µM
[14] = RPMI 5 mM glucose + 10% FBS, 0.00702 µM
[15] = RPMI 5 mM glucose + 10% FBS, 0.0211 µM
[16] = RPMI 5 mM glucose + 10% FBS, 0.0632 µM
[17] = RPMI 5 mM glucose + 10% FBS, 0.19 µM
[18] = RPMI 5 mM glucose + 10% FBS, 0.569 µM
[19] = RPMI 5 mM glucose + 10% FBS, 1.71 µM
[20] = RPMI 5 mM glucose + 10% FBS, 5.12 µM
[21] = RPMI 5 mM glucose + 10% FBS, 15.4 µM
[22] = RPMI 5 mM glucose + 10% FBS, 46.1 µM
[23] = RPMI 5 mM glucose + 10% dialyzed FBS, 0.000781 µM
[24] = RPMI 5 mM glucose + 10% dialyzed FBS, 0.00234 µM
[25] = RPMI 5 mM glucose + 10% dialyzed FBS, 0.00702 µM
[26] = RPMI 5 mM glucose + 10% dialyzed FBS, 0.0211 µM
[27] = RPMI 5 mM glucose + 10% dialyzed FBS, 0.0632 µM
[28] = RPMI 5 mM glucose + 10% dialyzed FBS, 0.19 µM
[29] = RPMI 5 mM glucose + 10% dialyzed FBS, 0.569 µM
[30] = RPMI 5 mM glucose + 10% dialyzed FBS, 1.71 µM
[31] = RPMI 5 mM glucose + 10% dialyzed FBS, 5.12 µM
[32] = RPMI 5 mM glucose + 10% dialyzed FBS, 15.4 µM
[33] = RPMI 5 mM glucose + 10% dialyzed FBS, 46.1 µM

SMILES	cell viability [1] [%]	cell viability [2] [%]	cell viability [3] [%]	cell viability [4] [%]	cell viability [5] [%]	cell viability [6] [%]	cell viability [7] [%]	cell viability [8] [%]	cell viability [9] [%]	cell viability [10] [%]	cell viability [11] [%]	cell viability [12] [%]	cell viability [13] [%]	cell viability [14] [%]	cell viability [15] [%]	cell viability [16] [%]	cell viability [17] [%]	cell viability [18] [%]	cell viability [19] [%]	cell viability [20] [%]	cell viability [21] [%]	cell viability [22] [%]	cell viability [23] [%]	cell viability [24] [%]	cell viability [25] [%]	cell viability [26] [%]	cell viability [27] [%]	cell viability [28] [%]	cell viability [29] [%]	cell viability [30] [%]	cell viability [31] [%]	cell viability [32] [%]	cell viability [33] [%]
CN1[C@@H]2CC(OC(=O)[C@@H](CO)c3ccccc3)C[C@H]1[C@H]1O[C@H]12 (some centres not stated)	85.3	88.7	91	84.7	93.5	106	102	110	108	102	98	80.9	82.9	80.7	85	90.6	113	96.2	106	89.2	97	97.9	90.2	88.8	105	86.3	96.3	105	117	114	101	113	108
CCCc1nc(C(C)(C)O)c(C(=O)O)n1Cc1ccc(-c2ccccc2-c2nn[nH]n2)cc1	104	116	97.3	112	119	116	58.6	60	118	120	110	76.4	88.1	69.3	76.7	84.5	76.5	69	46.8	79.2	82.6	62.3	96	104	109	98.5	104	109	90.3	56	103	105	103
CC1(C)O[C@@H]2C[C@H]3[C@@H]4CCC5=CC(=O)C=C[C@]5(C)[C@@]4(F)[C@@H](O)C[C@]3(C)[C@]2(C(=O)CO)O1	74.9	83.6	109	50.6	91.2	83.5	6.87	30.7	14.9	14.2	26.3	76.9	97	103	61.7	78.3	79.3	7.13	22.6	45.9	17.7	30.4	73.1	82.4	109	96.4	101	75.7	7.45	20.3	47.6	11.4	19.8
OC[C@H]1O[C@@H](O[C@@H]2[C@@H](CO)O[C@](O)(CO)[C@H]2O)[C@H](O)[C@@H](O)[C@H]1O	103	96.4	105	110	113	100	109	108	105	63.5	93.7	102	85	108	112	94.1	97.2	102	96.2	93.3	68.9	95.8	95.6	82.5	102	116	101	105	94.6	106	82.8	72.2	96.4
CN(c1ncccc1CNc1nc(Nc2ccc3c(c2)CC(=O)N3)ncc1C(F)(F)F)[S+](C)(=O)[O-]	–	–	–	–	–	–	–	–	–	–	–	120	122	140	129	129	92.7	99	91.3	13	18.9	4.29	112	125	122	119	140	119	111	17.1	11.8	11.6	3.18
O=C(NOCC(O)CO)c1cc(Br)c(F)c(F)c1Nc1ccc(I)cc1F (configuration not stated)	66.2	76.3	73	78.6	77.2	83	80.4	62.4	46.3	60.7	44.1	63.8	92	76.8	90.1	94.4	80.3	70.8	69.3	52.7	45.7	37	73.3	95.8	67.4	83.1	81.6	67.5	54.1	61.1	39	37.1	42.1
C=CC(=O)Nc1cccc(Oc2nc(Nc3ccc(N4CCN(C)CC4)cc3)ncc2Cl)c1	94.3	112	109	116	128	111	104	83	22.1	21.6	22.2	–	–	–	–	–	–	–	–	–	–	–	108	107	125	124	128	111	103	71.8	21.1	15	10.4
Cc1nc(NC(=O)N2CCC[C@H]2C(N)=O)sc1-c1ccnc(C(C)(C)C(F)(F)F)c1	91.6	98.2	84.2	96.9	93	72.5	74.4	63.3	59.1	52.7	100	98.7	111	102	121	112	91.1	97.8	86.6	74.5	68.2	119	96.3	95.9	84	93	85.7	92.3	86.1	77.2	62.2	58	89.2
